In one test the target is GST-Bcl-xL (Homo sapiens, UniProt Q07817). To be noted: read-out: TR-FRET binding Bcl-xL Ki.
Test [1] relates to mouse FL5.12 cells transfected with Bcl-XL. Nature of the test: FL5.12 cellular assay (cell viability, CellTiter-Glo).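 Further: each EC50 determination derived from duplicate measurements.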 The class given is cell-based. To be noted: FL5.12 cells transfected with Bcl-XL, IL-3-depleted, 3% FBS assay media, 24 hours, CellTiter-Glo, read-out: FL5.12 Bcl-xL, - IL3, EC 50. In general terms: In ATP-based viability assays light output follows the ATP content of the culture.

The structures appear in SMILES notation. pEC50, pKi: −log10 of the molar value. Like-named read-outs stand apart in the source and are kept apart here. Bounds are passed on as bounds.

Chain of GST-Bcl-xL (Q07817 whole entry): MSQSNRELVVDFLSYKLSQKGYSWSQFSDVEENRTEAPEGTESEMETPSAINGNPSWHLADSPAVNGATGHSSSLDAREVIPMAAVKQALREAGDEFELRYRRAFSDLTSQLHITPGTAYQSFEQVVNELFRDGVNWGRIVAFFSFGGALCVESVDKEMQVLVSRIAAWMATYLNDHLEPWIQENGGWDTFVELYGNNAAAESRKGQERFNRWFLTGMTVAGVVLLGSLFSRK

On to `O=C(Nc1nc2ccccc2s1)c1cccc2c1CN(c1ccc(-c3ccc4c(c3)CCN(Cc3ccccn3)C4)c(C(=O)O)n1)CC2` [Example 136, 6-[8-(1,3-benzothiazol-2-ylcarbamoyl)-3,4-dihydroisoquinolin-2(1H)-yl]-3-[2-(pyridin-2-ylmethyl)-1,2,3,4-tetrahydroisoquinolin-6-yl]pyridine-2-carboxylic acid], for which the pKi (commonly the negative decadic logarithm of the Ki, by convention in mol/L) on GST-Bcl-xL is 8.85. Besides, the pEC50 in test [1] (Mus musculus) was < 6.00.
On to `Cc1c(-c2ccc(N3CCc4cccc(C(=O)Nc5nc6ccccc6s5)c4C3)nc2C(=O)O)ccnc1OC1CCCCC1` [Example 138, 6-[8-(1,3-benzothiazol-2-ylcarbamoyl)-3,4-dihydroisoquinolin-2(1H)-yl]-2'-(cyclohexyloxy)-3'-methyl-3,4'-bipyridine-2-carboxylic acid], for which the pKi on GST-Bcl-xL is > 10.00. Moreover, the pEC50 in test [1] (Mus musculus) was < 6.00.
With `O=C(Nc1nc2ccccc2s1)c1cccc2c1CN(c1ccc(-c3ccnc(OC4CCCCC4)c3)c(C(=O)O)n1)CC2` [Example 139, 6-[8-(1,3-benzothiazol-2-ylcarbamoyl)-3,4-dihydroisoquinolin-2(1H)-yl]-2'-(cyclohexyloxy)-3,4'-bipyridine-2-carboxylic acid], the pKi on GST-Bcl-xL was 9.40. For the same compound, in test [1] (Mus musculus), the pEC50 was < 6.00.
For `O=C(Nc1nc2ccccc2s1)c1cccc2c1CN(c1ccc(-c3ccnc(Oc4ccccc4)c3)c(C(=O)O)n1)CC2` [Example 140, 6-[8-(1,3-benzothiazol-2-ylcarbamoyl)-3,4-dihydroisoquinolin-2(1H)-yl]-2'-phenoxy-3,4'-bipyridine-2-carboxylic acid], the pKi at GST-Bcl-xL was 8.64. In addition, the pEC50 in test [1] (Mus musculus) was < 6.00.
`O=C(Nc1nc2ccccc2s1)c1cccc2c1CN(c1ccc(-c3cn(Cc4ccccc4)c4ncccc34)c(C(=O)O)n1)CC2` [Example 141, 6-[8-(1,3-benzothiazol-2-ylcarbamoyl)-3,4-dihydroisoquinolin-2(1H)-yl]-3-(1-benzyl-1H-pyrrolo[2,3-b]pyridin-3-yl)pyridine-2-carboxylic acid]: the pKi on GST-Bcl-xL is 9.00. In test [1] (Mus musculus), the pEC50 is 6.36.
On the same counts, the results for `Cc1c(-c2ccc(N3CCc4cccc(C(=O)Nc5nc6ccccc6s5)c4C3)nc2C(=O)O)ccnc1Oc1ccccc1` [Example 142, 6-[8-(1,3-benzothiazol-2-ylcarbamoyl)-3,4-dihydroisoquinolin-2(1H)-yl]-3'-methyl-2'-phenoxy-3,4'-bipyridine-2-carboxylic acid] are 9.30 and < 6.00.
The matching figures for `Cc1c(-c2ccc(N3CCc4cccc(C(=O)Nc5nc6ccccc6s5)c4C3)nc2C(=O)O)ccnc1N(C)c1ccccc1` [Example 143, 6-[8-(1,3-benzothiazol-2-ylcarbamoyl)-3,4-dihydroisoquinolin-2(1H)-yl]-3'-methyl-2'-[methyl(phenyl)amino]-3,4'-bipyridine-2-carboxylic acid]: > 10.00 and 7.72.
The matching figures for `COCC1(Cn2ncc(-c3ccc(N4CCc5cccc(C(=O)Nc6nc7ccccc7s6)c5C4)nc3C(=O)O)c2C)CCCCC1` [Example 144, 6-[8-(1,3-benzothiazol-2-ylcarbamoyl)-3,4-dihydroisoquinolin-2(1H)-yl]-3-(1-{[1-(methoxymethyl)cyclohexyl]methyl}-5-methyl-1H-pyrazol-4-yl)pyridine-2-carboxylic acid]: > 10.00 and 6.67.
As for `Cc1c(-c2ccc(N3CCc4cccc(C(=O)Nc5nc6ccccc6s5)c4C3)nc2C(=O)O)cnn1CC1(N2CCOCC2)CCCC(C)(C)C1` (centres unmarked) [Example 145, 6-[8-(1,3-benzothiazol-2-ylcarbamoyl)-3,4-dihydroisoquinolin-2(1H)-yl]-3-(1-{[3,3-dimethyl-1-(morpholin-4-yl)cyclohexyl]methyl}-5-methyl-1H-pyrazol-4-yl)pyridine-2-carboxylic acid], on GST-Bcl-xL, the pKi is > 10.00. The pEC50 in test [1] (Mus musculus) was 9.70.
In the case of `COCCC1(Cn2ncc(-c3ccc(N4CCc5cccc(C(=O)Nc6nc7ccccc7s6)c5C4)nc3C(=O)O)c2C)CCCC(C)(C)C1` (centres unmarked) [Example 146, 6-[8-(1,3-benzothiazol-2-ylcarbamoyl)-3,4-dihydroisoquinolin-2(1H)-yl]-3-(1-{[1-(2-methoxyethyl)-3,3-dimethylcyclohexyl]methyl}-5-methyl-1H-pyrazol-4-yl)pyridine-2-carboxylic acid], the negative-log Ki (pKi) on GST-Bcl-xL is > 10.00. In addition, the pEC50 in test [1] (Mus musculus) is 7.96.
`COCCCC1(Cn2ncc(-c3ccc(N4CCc5cccc(C(=O)Nc6nc7ccccc7s6)c5C4)nc3C(=O)O)c2C)CCCCCC1` [Example 147, 6-[8-(1,3-benzothiazol-2-ylcarbamoyl)-3,4-dihydroisoquinolin-2(1H)-yl]-3-(1-{[1-(3-methoxypropyl)cycloheptyl]methyl}-5-methyl-1H-pyrazol-4-yl)pyridine-2-carboxylic acid]: on GST-Bcl-xL, the pKi is > 10.00. In addition, in test [1], the pEC50 was 9.00.
Turning to `COCCC1(Cn2ncc(-c3ccc(N4CCc5cccc(C(=O)Nc6nc7ccccc7s6)c5C4)nc3C(=O)NS(C)(=O)=O)c2C)CCCCCC1` [Example 148, N-(1,3-benzothiazol-2-yl)-2-{5-(1-{[1-(2-methoxyethyl)cycloheptyl]methyl}-5-methyl-1H-pyrazol-4-yl)-6-[(methylsulfonyl)carbamoyl]pyridin-2-yl}-1,2,3,4-tetrahydroisoquinoline-8-carboxamide], the pKi at GST-Bcl-xL was > 10.00. In addition, in test [1] (Mus musculus), the pEC50 is 7.89.
Consider `COCCOC1(Cn2ncc(-c3ccc(N4CCc5cccc(C(=O)Nc6nc7ccccc7s6)c5C4)nc3C(=O)O)c2C)CCCCCC1` [Example 151, 6-[8-(1,3-benzothiazol-2-ylcarbamoyl)-3,4-dihydroisoquinolin-2(1H)-yl]-3-(1-{[1-(2-methoxyethoxy)cycloheptyl]methyl}-5-methyl-1H-pyrazol-4-yl)pyridine-2-carboxylic acid], for which the pKi at GST-Bcl-xL is > 10.00. For the same compound, the pEC50 in test [1] (Mus musculus) is 9.22.
`Cc1c(-c2ccc(N3CCc4cccc(C(=O)Nc5nc6ccccc6s5)c4C3)nc2C(=O)O)cnn1C(CCN1CCOCC1)C1CCCCC1` (centres unmarked) [Example 152, 6-[8-(1,3-benzothiazol-2-ylcarbamoyl)-3,4-dihydroisoquinolin-2(1H)-yl]-3-{1-[1-cyclohexyl-3-(morpholin-4-yl)propyl]-5-methyl-1H-pyrazol-4-yl}pyridine-2-carboxylic acid]: on GST-Bcl-xL, the pKi is > 10.00. Besides, the pEC50 in test [1] (Mus musculus) was 9.00.
As to `O=C(Nc1nc2ccccc2s1)c1cccc2c1CN(c1ccc(-c3ccc4c(cnn4Cc4ccccc4)c3)c(C(=O)O)n1)CC2` [Example 153, 6-[8-(1,3-benzothiazol-2-ylcarbamoyl)-3,4-dihydroisoquinolin-2(1H)-yl]-3-(1-benzyl-1H-indazol-5-yl)pyridine-2-carboxylic acid], the pKi on GST-Bcl-xL is 9.52. Further, the pEC50 in test [1] (Mus musculus) is 6.23.
Consider `Cc1c(-c2ccc(N3CCc4cccc(C(=O)Nc5nc6ccccc6s5)c4C3)nc2C(=O)O)cnn1CC1CCCCO1` (centres unmarked) [Example 154, 6-[8-(1,3-benzothiazol-2-ylcarbamoyl)-3,4-dihydroisoquinolin-2(1H)-yl]-3-[5-methyl-1-(tetrahydro-2H-pyran-2-ylmethyl)-1H-pyrazol-4-yl]pyridine-2-carboxylic acid], for which the pKi on GST-Bcl-xL was > 10.00. Besides, the pEC50 in test [1] (Mus musculus) was 7.82.

The record behind these values is patent publication EP2768830B1, “APOPTOSIS-INDUCING AGENTS FOR THE TREATMENT OF CANCER AND IMMUNE AND AUTOIMMUNE DISEASES” (AbbVie Inc., priority 2011, dated 2013).
